Values of other authors in patent US20190000795A1, “Methods of using cannabinoids and/or molecular similars for modulating, waking-up and/or disabling cellular functions involved in causing disease -- reinvigorating metabolism with anandamide, 2-arachidonoylglycerol and similarly acting compounds” (priority 2017, published 2019).
Like-named read-outs stand apart in the source and are kept apart here.

What was measured:
Complex 1 = details: for Complex 1 activity, rapid and transient increase: below threshold around 10 μM
mitochondrion [1] = system: mitochondrion
mitochondrion [2] = system: mitochondrion; remark: listed apart in the source
GPR55 = GPR55 (Homo sapiens, UniProt Q9Y2T6)
Sequence of GPR55 (Q9Y2T6 whole entry, species assumed): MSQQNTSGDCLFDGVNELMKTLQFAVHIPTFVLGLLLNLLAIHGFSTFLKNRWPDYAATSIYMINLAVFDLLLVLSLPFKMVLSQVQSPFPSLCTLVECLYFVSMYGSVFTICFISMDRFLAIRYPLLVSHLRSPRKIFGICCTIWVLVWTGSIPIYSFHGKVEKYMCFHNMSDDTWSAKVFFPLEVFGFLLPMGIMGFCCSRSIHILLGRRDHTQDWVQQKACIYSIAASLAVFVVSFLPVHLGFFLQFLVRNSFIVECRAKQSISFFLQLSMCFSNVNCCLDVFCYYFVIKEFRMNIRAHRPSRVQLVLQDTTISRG

| SMILES | O2 consumption at the mitochondrion (mitochondrion [2]) | GPR55 Ca2+ flux activation (GPR55) | other results |
| --- | --- | --- | --- |
| CCCCCCC(C)(C)c1cc(O)c2c(c1)OC(C)(C)[C@@H]1CC=C(CO)C[C@@H]21 [HU210] | decrease |  | threshold concentration of sudden decrease of Complex 1 activity (Complex 1): around 10 μM; Complex 1 activity, rapid and transient increase (Complex 1): 25%; effect on H2O2 production (mitochondrion [1]; between 2 and 10 μM): increase |
| CCCCC/C=C\C/C=C\C/C=C\C/C=C\CCCC(=O)OC(CO)CO [2AG, 2-arachidonoylglycerol] |  | not |  |
| CCCCC/C=C\C/C=C\C/C=C\C/C=C\CCCC(=O)OCCN [O-AEA, O-arachidonoyl ethanolamine] |  | not | body temperature (mice): lowers body temperature |
| CCCn1c(C)c(C(=O)c2cccc3ccccc23)c2ccccc21 [JWH015] |  | Ca^2+ flux activation |  |
| CCCCC/C=C\C/C=C\C/C=C\C/C=C\CCCC(=O)N[C@H](C)CO [methanandamide] |  | Ca^2+ flux activation |  |
| CCCCCCCCCCCCCCCC(=O)NCCO [PEA, palmitoylethanolamide] |  | not |  |
| CCCCC/C=C\C/C=C\C/C=C\C/C=C\CCCC(=O)NCCO [AEA, N-arachidonoylethanolamine] | decrease | Ca^2+ flux activation | concentration range of steady logarithmic decline of Complex 1 activity (Complex 1): 5-200 μM; effect on H2O2 production (mitochondrion [1]): no effect |
| CCCCCc1cc(O)c2c(c1)OC(C)(C)[C@@H]1CCC(C)=C[C@@H]21 [THC, delta-9 tetrahydrocannabinol] | decrease | Ca^2+ flux activation | threshold concentration of sudden decrease of Complex 1 activity (Complex 1): around 10 μM; Complex 1 activity, rapid and transient increase (Complex 1): 50%; Complex 2/3 inhibition, course of effect (Complex 2/3): more steady logarithmic concentration dependent effect; effect on H2O2 production (mitochondrion [1]; between 2 and 10 μM): increase |
| CCCCCCC(C)(C)c1ccc([C@@H]2C[C@H](O)CC[C@H]2CCCO)c(O)c1 [CP 55 940] |  | not |  |
